Measured values as given in US9914730B2, “Azaquinazoline inhibitors of Atypical protein Kinase C” (Ignyta, Inc., priority 2012, dated 2018).
Counter-ions that a name gives are not always drawn.

Biological target: T1, full-length human PKCι (Homo sapiens, UniProt P41743)
T1 construct: Recombinant, full-length human PKCι expressed in Sf21 insect cells is also commercially available; purchased; host or cells: Sf21 insect cells
T1 sequence (P41743 1-596): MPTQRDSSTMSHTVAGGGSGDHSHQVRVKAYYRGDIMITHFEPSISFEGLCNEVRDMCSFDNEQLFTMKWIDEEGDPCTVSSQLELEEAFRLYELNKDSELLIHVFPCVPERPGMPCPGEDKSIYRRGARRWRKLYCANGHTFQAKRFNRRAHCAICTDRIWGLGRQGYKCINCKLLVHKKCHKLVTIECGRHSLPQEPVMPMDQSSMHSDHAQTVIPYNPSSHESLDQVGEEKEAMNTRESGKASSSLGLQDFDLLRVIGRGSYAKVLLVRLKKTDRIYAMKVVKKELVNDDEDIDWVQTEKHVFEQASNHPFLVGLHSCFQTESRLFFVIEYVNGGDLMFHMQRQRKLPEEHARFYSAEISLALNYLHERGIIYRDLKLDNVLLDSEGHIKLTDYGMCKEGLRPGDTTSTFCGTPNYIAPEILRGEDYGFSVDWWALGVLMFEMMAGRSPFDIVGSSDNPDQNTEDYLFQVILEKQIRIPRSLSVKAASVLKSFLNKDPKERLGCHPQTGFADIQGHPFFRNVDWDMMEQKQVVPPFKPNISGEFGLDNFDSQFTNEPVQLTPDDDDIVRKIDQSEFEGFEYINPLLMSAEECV
Test: PKCι IC50 IMAP assay, full-length PKCι at 150 μM ATP
Type: biochemical
Settings: read-out: IC50 in IMAP assay against full length PKCi at 150 μM ATP
In short: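 Dose-response IC50 values come from IMAP fluorescence polarisation after 60 min room-temperature turnover of 100 nM FAM peptide by ~15 pM insect-cell-expressed full-length PKCι at 150 μM ATP (5× KM^APP), normalised to no-compound and no-enzyme controls.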

Row | SMILES | IC50
1 | Fc1nc(C2CC2)ccc1Nc1cc(-c2nc(N3CCNCC3)c3c(C4CC4)cncc3n2)ccn1 [Example 725, (6-Cyclopropyl-2-fluoro-pyridin-3-yl)-[4-(5-cyclopropyl-4-piperazin-1-yl-pyrido[3,4-d]pyrimidin-2-yl)-pyridin-2-yl]-amine; bis-trifluoroacetic acid salt] | < 100 nM
2 | Fc1ccc(Nc2cc(-c3nc(N4CCNCC4)c4c(C5CC5)cncc4n3)ccn2)cc1F [Example 599, [4-(5-Cyclopropyl-4-piperazin-1-yl-pyrido[3,4-d]pyrimidin-2-yl)-pyridin-2-yl]-(3,4-difluoro-phenyl)-amine] | < 100 nM
3 | Fc1ccc(Nc2cc(-c3nc(N4CCNCC4)c4c(C5CC5)cncc4n3)ccn2)nn1 [Example 2191, [4-(5-Cyclopropyl-4-piperazin-1-yl-pyrido[3,4-d]pyrimidin-2-yl)-pyridin-2-yl]-(6-fluoro-pyridazin-3-yl)-amine] | < 100 nM
4 | Clc1cc2c(N3CCNCC3)nc(-c3ccncc3)nc2cn1 [Example 13, 1-[6-chloro-2-(pyridin-4-yl)-pyrido[3,4-d]-pyrimidin-4-yl]piperazine] | 1000 to 10000 nM
5 | OC1CCC(Nc2cc(-c3nc(N4CCNCC4)c4c(C5CC5)cncc4n3)ccn2)CC1 (centres unmarked) [Example 633, 4-[4-(5-Cyclopropyl-4-piperazin-1-yl-pyrido[3,4-d]pyrimidin-2-yl)-pyridin-2-ylamino]-cyclohexanol] | < 100 nM
6 | CC1(C)CN(c2nc(-c3ccnc4[nH]c(C(F)(F)F)cc34)nc3cncc(C4CC4)c23)CCN1 [Example 1251, 5-Cyclopropyl-4-(3,3-dimethyl-piperazin-1-yl)-2-(2-trifluoromethyl-1H-pyrrolo[2,3-b]pyridin-4-yl)-pyrido[3,4-d]pyrimidine] | < 100 nM
7 | Cc1ccc(Cl)c(Nc2cc(-c3nc(N4CCNCC4)c4c(C5CC5)cncc4n3)ccn2)c1 [Example 577, (2-Chloro-5-methyl-phenyl)-[4-(5-cyclopropyl-4-piperazin-1-yl-pyrido[3,4-d]pyrimidin-2-yl)-pyridin-2-yl]-Amine] | < 100 nM
8 | COCc1ccccc1Nc1cc(-c2nc(N3CCNCC3)c3c(C4CC4)cncc3n2)ccn1 [Example 517, [4-(5-Cyclopropyl-4-piperazin-1-yl-pyrido[3,4-d]pyrimidin-2-yl)-pyridin-2-yl]-(2-methoxymethyl-phenyl)-amine] | 100 to 1000 nM
9 | COc1cncc(Nc2cc(-c3nc(N4CCNCC4)c4c(OC)cncc4n3)ccn2)c1 [Example 424, [4-(5-Methoxy-4-piperazin-1-yl-pyrido[3,4-d]pyrimidin-2-yl)-pyridin-2-yl]-(5-methoxy-pyridin-3-yl)-amine] | < 100 nM
10 | c1cc(-c2nc(N3CCN[C@@H](C4CC4)C3)c3c(C4CC4)cncc3n2)c2cc[nH]c2n1 [Example 1220, 5-Cyclopropyl-4-((S)-3-cyclopropyl-piperazin-1-yl)-2-(1H-pyrrolo[2,3-b]pyridin-4-yl)-pyrido[3,4-d]pyrimidine] | < 100 nM
11 | O[C@H]1CCN(c2nc(-c3ccncc3)nc3cnccc23)C1 [Example 35, (3S)-1-[2-(pyridin-4-yl)pyrido[3,4-d]-pyrimidin-4-yl]-pyrrolidin-3-ol] | 10000 to 40000 nM
12 | COc1cncc2nc(-c3ccnc(Nc4ccccc4)c3)nc(N3CCC(O)C(CO)C3)c12 (centres unmarked) [Example 443, 3-Hydroxymethyl-1-[5-methoxy-2-(2-phenylamino-pyridin-4-yl)-pyrido[3,4-d]pyrimidin-4-yl]-piperidin-4-ol] | 1000 to 10000 nM
13 | Fc1ccnc(Nc2cc(-c3nc(N4CCNCC4)c4c(C5CC5)cncc4n3)ccn2)c1 [Example 756, [4-(5-Cyclopropyl-4-piperazin-1-yl-pyrido[3,4-d]pyrimidin-2-yl)-pyridin-2-yl]-(4-fluoro-pyridin-2-yl)-amine] | < 100 nM
14 | c1cc(-c2nc(N3CCNCC3)c3c(C4CC4)cncc3n2)cc(N[C@H]2CCOC2)n1 [Example 518, [4-(5-Cyclopropyl-4-piperazin-1-yl-pyrido[3,4-d]pyrimidin-2-yl)-pyridin-2-yl]-(S)-tetrahydro-furan-3-yl-amine] | < 100 nM
15 | O[C@H]1Cc2ccccc2[C@@H]1Nc1cc(-c2nc(N3CCNCC3)c3c(C4CC4)cncc3n2)ccn1 [Example 2141, (1S,2S)-1-[4-(5-Cyclopropyl-4-piperazin-1-yl-pyrido[3,4-d]pyrimidin-2-yl)-pyridin-2-ylamino]-indan-2-ol] | < 100 nM
16 | C[C@@H](N)CNc1nc(-c2ccncc2)nc2cnccc12 [Example 4, N-[(2R)-2-aminopropyl)-2-(pyridin-4-yl)pyrido[3,4-d]-pyrimidin-4-amine] | 1000 to 10000 nM
17 | COc1cncc2nc(-c3ccnc(Nc4c(F)cc(F)cc4F)c3)nc(N3CCNCC3)c12 [Example 441, [4-(5-Methoxy-4-piperazin-1-yl-pyrido[3,4-d]pyrimidin-2-yl)-pyridin-2-yl]-(2,4,6-trifluoro-phenyl)-amine] | < 100 nM
18 | CC(=O)Nc1cc(-c2nc(N3CCNC(CC(F)(F)F)C3)c3c(C4CC4)cncc3n2)ccn1 (centres unmarked) [Example 626, N-(4-{5-Cyclopropyl-4-[3-(2,2,2-trifluoro-ethyl)-piperazin-1-yl]-pyrido[3,4-d]pyrimidin-2-yl}-pyridin-2-yl)-acetamide] | < 100 nM
19 | CS(=O)(=O)N1CCC(Nc2cc(-c3nc(N4CCNCC4)c4c(C5CC5)cncc4n3)ccn2)CC1 [Example 816, [4-(5-Cyclopropyl-4-piperazin-1-yl-pyrido[3,4-d]pyrimidin-2-yl)-pyridin-2-yl]-(1-methanesulfonyl-piperidin-4-yl)-amine] | < 100 nM
20 | Fc1ccccc1Nc1cc(-c2nc(N3CCNCC3)c3c(C4CC4)cncc3n2)ccn1 [Example 263, [4-(5-Cyclopropyl-4-piperazin-1-yl-pyrido[3,4-d]pyrimidin-2-yl)-pyridin-2-yl]-(2-fluoro-phenyl)-amine] | < 100 nM
21 | FC(F)(F)c1cc2c(-c3nc(N4CCNCC4)c4c(Br)cncc4n3)ccnc2[nH]1 [Example 2117, 5-Bromo-4-piperazin-1-yl-2-(2-trifluoromethyl-1H-pyrrolo[2,3-b]pyridin-4-yl)-pyrido[3,4-d]pyrimidine] | < 100 nM
22 | CCc1cncc2nc(-c3ccncc3)nc(N3CCNCC3)c12 [Example 136, 1-[5-ethyl-2-(pyridin-4-yl)pyrido[3,4-d]pyrimidin-4-yl]piperazine] | < 100 nM
23 | C[C@@H](Nc1cc(-c2nc(N3CCNCC3)c3c(C4CC4)cncc3n2)ccn1)c1ccccc1 [Example 586, [4-(5-Cyclopropyl-4-piperazin-1-yl-pyrido[3,4-d]pyrimidin-2-yl)-pyridin-2-yl]-((R)-1-phenyl-ethyl)-amine] | < 100 nM
24 | N[C@H](CNc1nc(-c2ccncc2)nc2c(-c3ccccc3Cl)nccc12)Cc1ccccc1 [Example 96, N-[(2S)-2-amino-3-phenylpropyl]-8-(2-chlorophenyl)-2-(pyridin-4-yl)pyrido[3,4-d]pyrimidin-4-amine] | 100 to 1000 nM
25 | FC(F)(F)c1ncccc1Nc1cc(-c2nc(N3CCNCC3)c3c(C4CC4)cncc3n2)ccn1 [Example 536, [4-(5-Cyclopropyl-4-piperazin-1-yl-pyrido[3,4-d]pyrimidin-2-yl)-pyridin-2-yl]-(2-trifluoromethyl-pyridin-3-yl)-amine] | 1000 to 10000 nM
26 | c1ccc2oc(Nc3cc(-c4nc(N5CCNCC5)c5c(C6CC6)cncc5n4)ccn3)nc2c1 [Example 2044, Benzooxazol-2-yl-[4-(5-cyclopropyl-4-piperazin-1-yl-pyrido[3,4-d]pyrimidin-2-yl)-pyridin-2-yl]-amine] | < 100 nM
